For this assay, the target named is BTK enzyme (recombinant full-length BTK, hBTK) (Homo sapiens (Human), UniProt Q06187). The assay is described as follows: Btk enzyme activity assay, LANCE TR-FRET. As to conditions: 50 pM hBTK, 2 μM biotin-A5-peptide, 25 μM ATP, 60 minute compound & enzyme incubation, compound range 1 μM to 0.017 nM, read-out: BTK binding IC50. Type of assay: biochemical. As for the experimental part: Btk Enzyme Activity Assay Methods
BTK enzymatic activity was determined with the LANCE (Lanthanide Chelate Excite) TR-FRET (Time-resolved fluorescence resonance energy transfer) assay. In this assay, the potency (IC50) of each compound was determined from an eleven point (1:3 serial dilution; final compound concentration range in assay from 1 μM to 0.017 nM) titration curve using the following outlined procedure. To each well of a black non-binding surface Corning 384-well microplate (Corning Catalog #3820), 5 nL of compound (2000 fold dilution in final assay volume of 10 μL) was dispensed, followed by the addition of 7.5 μL of 1× kinase buffer (50 mM Hepes 7.5, 10 mM MgCl2, 0.01% Brij-35, 1 mM EGTA, 0.05% BSA & 1 mM DTT) containing 5.09 pg/μL (66.67 pM) of BTK enzyme (recombinant protein from baculovirus-transfected Sf9 cells: full-length BTK, 6HIS-tag cleaved). Following a 60 minute compound & enzyme incubation, each reaction was initiated by the addition of 2.5 μL 1× kinase buffer containing 8 μM biotinylated “A5” peptide (Biotin-EQEDEPEGDYFEWLE-NH2) (SEQ.ID.NO.: 1), and 100 μM ATP. The final reaction in each well of 10 μL consists of 50 pM hBTK, 2 μM biotin-A5-peptide, and 25 μM ATP. Phosphorylation reactions were allowed to proceed for 120 minutes. Reactions were immediately quenched by the addition of 20 uL of 1× quench buffer (15 mM EDTA, 25 mM Hepes 7.3, and 0.1% Triton X-100) containing detection reagents (0.626 nM of LANCE-Eu-W1024-anti-phosphoTyrosine antibody, PerkinElmer and 86.8 nM of Streptavidin-conjugated Dylight 650, Dyomics/ThermoFisher Scientific). After 60 minutes incubation with detection reagents, reaction plates were read on a PerkinElmer EnVision plate reader using standard TR-FRET protocol. Briefly, excitation of donor molecules (Eu-chelate:anti-phospho-antibody) with a laser light source at 337 nm produces energy that can be transferred to Dylight-650 acceptor molecules if this donor:acceptor pair is within close proximity. Fluorescence intensity at both 665 nm (acceptor) and 615 nm (donor) are measured and a TR-FRET ratio calculated for each well (acceptor intensity/donor intensity). IC50 values were determined by 4 parameter robust fit of TR-FRET ratio values vs. (Log10) compound concentrations.

The values below come from patent US10208047B2, “Tertiary alcohol imidazopyrazine BTK inhibitors” (Merck Sharp & Dohme Corp., priority 2014, dated 2019).

SMILES strings stand for the structures.

Chain of BTK enzyme (recombinant full-length BTK, hBTK) (Q06187 whole entry): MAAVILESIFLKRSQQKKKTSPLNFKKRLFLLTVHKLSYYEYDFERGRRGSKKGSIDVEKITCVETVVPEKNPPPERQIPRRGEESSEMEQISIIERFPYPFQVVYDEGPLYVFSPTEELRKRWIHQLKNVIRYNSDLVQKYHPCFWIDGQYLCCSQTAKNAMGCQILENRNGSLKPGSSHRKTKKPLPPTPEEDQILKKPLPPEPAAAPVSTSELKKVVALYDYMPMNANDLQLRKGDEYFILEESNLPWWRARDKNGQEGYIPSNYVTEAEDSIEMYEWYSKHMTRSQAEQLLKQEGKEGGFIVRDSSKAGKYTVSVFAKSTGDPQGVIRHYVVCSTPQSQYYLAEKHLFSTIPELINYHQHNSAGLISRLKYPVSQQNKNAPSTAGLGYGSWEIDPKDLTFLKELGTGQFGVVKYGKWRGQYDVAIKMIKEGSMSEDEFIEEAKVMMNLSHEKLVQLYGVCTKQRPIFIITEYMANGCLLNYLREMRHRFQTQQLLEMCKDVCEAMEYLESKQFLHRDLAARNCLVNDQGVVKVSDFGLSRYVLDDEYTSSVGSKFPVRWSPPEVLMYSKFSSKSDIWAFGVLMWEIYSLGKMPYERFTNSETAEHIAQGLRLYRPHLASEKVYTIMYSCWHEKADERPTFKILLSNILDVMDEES

For the molecule `CCOc1cc(C(C)(O)c2cccc(C)c2)ccc1-c1nc(C23CCC(C(=O)O)(CC2)CC3)n2ccnc(N)c12` (stereo not drawn) [Example 19, 4-(8-amino-1-{2-ethoxy-4-[1-hydroxy-1-(3-methylphenyl)ethyl]phenyl}imidazo[1,5-a]pyrazin-3-yl)bicyclo[2.2.2]octane-1-carboxylic acid], the IC50 stood at 4.1 nM. Consider `CCOc1cc(C(C)(O)c2cccc(C)c2)ccc1-c1nc(C23CCC(C(=O)O)(CC2)CC3)n2ccnc(N)c12` (stereo not drawn) [Example 20, 4-(8-amino-1-{2-ethoxy-4-[1-hydroxy-1-(3-methylphenyl)ethyl]phenyl}imidazo[1,5-a]pyrazin-3-yl)bicyclo[2.2.2]octane-1-carboxylic acid], for which the IC50 was 136 nM. In the case of `CC(C)[C@H]1CC[C@@H](c2nc(-c3ccc([C@@](C)(O)c4cccc(C(F)(F)F)c4)cc3)c3c(N)nccn23)C[C@H]1C(=O)O` [Example 21, (1R,2R,5R)-5-[8-amino-1-(4-{(1R)-1-hydroxy-1-[3-(trifluoromethyl)phenyl]ethyl}phenyl)imidazo[1,5-a]pyrazin-3-yl]-2-(1-methylethyl)cyclohexanecarboxylic acid] it was 56.1 nM; in that of `C[C@@](O)(c1ccc(-c2nc(C34CCC(C(=O)O)(CC3)C3CC34)n3ccnc(N)c23)cc1)c1cccc(C(F)(F)F)c1` (stereo partly drawn) [Example 22, 5-[8-amino-1-(4-{(1R)-1-hydroxy-1-[3-(trifluoromethyl)phenyl]ethyl}phenyl)imidazo[1,5-a]pyrazin-3-yl]tricyclo[3.2.2.0~2,4~]nonane-1-carboxylic acid], 6.2 nM; in that of `CC(C)[C@@H]1CC[C@H](c2nc(-c3ccc([C@@](C)(O)c4cccc(C(F)(F)F)c4)cc3)c3c(N)nccn23)C[C@@H]1C(=O)O` [Example 23, (1S,2S,5S)-5-[8-amino-1-(4-{(1R)-1-hydroxy-1-[3-(trifluoromethyl)phenyl]ethyl}phenyl)imidazo[1,5-a]pyrazin-3-yl]-2-(1-methylethyl)cyclohexanecarboxylic acid], 28.7 nM. In the case of `CC1(C)[C@H](c2nc(-c3ccc([C@@](C)(O)c4cccc(C(F)(F)F)c4)cc3)c3c(N)ncc(F)n23)CC[C@]1(C)C(=O)O` [Example 24, (1S,3R)-3-[8-amino-5-fluoro-1-(4-{(1R)-1-hydroxy-1-[3-(trifluoromethyl)phenyl]ethyl}phenyl)imidazo[1,5-a]pyrazin-3-yl]-1,2,2-trimethylcyclopentanecarboxylic acid], the IC50 came out at 6.3 nM. `C[C@@](O)(c1ccc(-c2nc([C@H]3C[C@H]4CC[C@@H](C3)[C@H]4C(=O)O)n3ccnc(N)c23)cc1)c1cccc(C(F)(F)F)c1` [Example 25, (3-endo,8-syn)-3-[8-amino-1-(4-{(1R)-1-hydroxy-1-[3-(trifluoromethyl)phenyl]ethyl}phenyl)imidazo[1,5-a]pyrazin-3-yl]bicyclo[3.2.1]octane-8-carboxylic acid]: the IC50 was 39.9 nM. In the case of `C[C@@](O)(c1ccc(-c2nc([C@@H]3C[C@H]4CC[C@@H](C3)[C@H]4C(=O)O)n3ccnc(N)c23)cc1)c1cccc(C(F)(F)F)c1` [Example 26, (3-exo,8-syn)-3-[8-amino-1-(4-{(1R)-1-hydroxy-1-[3-(trifluoromethyl)phenyl]ethyl}phenyl)imidazo[1,5-a]pyrazin-3-yl]bicyclo[3.2.1]octane-8-carboxylic acid] it was 33.5 nM; in that of `CC1(C)[C@H](c2nc(-c3ccc([C@@](C)(O)c4cccc(C(F)F)c4)cc3)c3c(N)nccn23)CC[C@]1(C)C(=O)O` [Example 27, (1S,3R)-3-[8-amino-1-(4-{(1R)-1-[3-(difluoromethyl)phenyl]-1-hydroxyethyl}phenyl)imidazo[1,5-a]pyrazin-3-yl]-1,2,2-trimethylcyclopentanecarboxylic acid], 0.78 nM; in that of `CCOc1cc([C@@](C)(O)c2cccc(C(F)(F)F)c2)ccc1-c1nc([C@@H]2CC[C@](C)(C(=O)O)C2(C)C)n2ccnc(N)c12` [Example 28, (1S,3R)-3-[8-amino-1-(2-ethoxy-4-{(1S)-1-hydroxy-1-[3-(trifluoromethyl)phenyl]ethyl}phenyl)imidazo[1,5-a]pyrazin-3-yl]-1,2,2-trimethylcyclopentanecarboxylic acid], 1.2 nM. Turning to `CC(C)[C@]1(C(=O)O)CC[C@@H](c2nc(-c3ccc([C@@](C)(O)c4cccc(C(F)F)c4)cc3)c3c(N)ncc(Cl)n23)C1` [Example 29, (1S,3R)-3-[8-amino-5-chloro-1-(4-{(1R)-1-[3-(difluoromethyl)phenyl]-1-hydroxyethyl}phenyl)imidazo[1,5-a]pyrazin-3-yl]-1-(1-methylethyl)cyclopentanecarboxylic acid], the IC50 is 2.8 nM. The figure for `CC(C)[C@@]1(C(=O)O)CC[C@H](c2nc(-c3ccc([C@@](C)(O)c4cccc(C(F)F)c4)cc3)c3c(N)ncc(Cl)n23)C1` [Example 30, (1R,3S)-3-[8-amino-5-chloro-1-(4-{(1R)-1-[3-(difluoromethyl)phenyl]-1-hydroxyethyl}phenyl)imidazo[1,5-a]pyrazin-3-yl]-1-(1-methylethyl)cyclopentanecarboxylic acid] is 32.3 nM. As to `CC(C)[C@]1(C(=O)O)CC[C@H](c2nc(-c3ccc([C@@](C)(O)c4cccc(C(F)F)c4)cc3)c3c(N)ncc(Cl)n23)C1` [Example 31, (1S,3S)-3-[8-amino-5-chloro-1-(4-{(1R)-1-[3-(difluoromethyl)phenyl]-1-hydroxyethyl}phenyl)imidazo[1,5-a]pyrazin-3-yl]-1-(1-methylethyl)cyclopentanecarboxylic acid], the IC50 turned out to be 133 nM. For the molecule `CC(C)[C@@]1(C(=O)O)CC[C@@H](c2nc(-c3ccc([C@@](C)(O)c4cccc(C(F)F)c4)cc3)c3c(N)ncc(Cl)n23)C1` [Example 32, (1R,3R)-3-[8-amino-5-chloro-1-(4-{(1R)-1-[3-(difluoromethyl)phenyl]-1-hydroxyethyl}phenyl)imidazo[1,5-a]pyrazin-3-yl]-1-(1-methylethyl)cyclopentanecarboxylic acid], the half-maximal inhibitory concentration (IC50) was found to be 41.8 nM. With `CC1(C(=O)O)CCC(C)(c2nc(-c3ccc([C@@](C)(O)c4cccc(C(F)F)c4)cc3)c3c(N)nccn23)CC1` (stereo partly drawn) [Example 33, 4-[8-amino-1-(4-{(1R)-1-[3-(difluoromethyl)phenyl]-1-hydroxyethyl}phenyl)imidazo[1,5-a]pyrazin-3-yl]-1,4-dimethylcyclohexanecarboxylic acid], the IC50 was determined as 11.4 nM.

As to `CC1(C)[C@H](c2nc(-c3ccc([C@@](C)(O)c4cccc(C(F)F)c4)cc3)c3c(N)ncc(F)n23)CC[C@]1(C)C(=O)O` [Example 34, (1S,3R)-3-[8-amino-1-(4-{(1R)-1-[3-(difluoromethyl)phenyl]-1-hydroxyethyl}phenyl)-5-fluoroimidazo[1,5-a]pyrazin-3-yl]-1,2,2-trimethylcyclopentanecarboxylic acid], the IC50 was determined as 2.4 nM. Take `C[C@@](O)(c1ccc(-c2nc([C@@H]3C[C@@H]4[C@H](C3)[C@@H]4C(=O)O)n3ccnc(N)c23)cc1)c1cccc(C(F)(F)F)c1` [Example 35, (1R,3r,5S,6s)-3-[8-amino-1-(4-{(1R)-1-hydroxy-1-[3-(trifluoromethyl)phenyl]ethyl}phenyl)imidazo[1,5-a]pyrazin-3-yl]bicyclo[3.1.0]hexane-6-carboxylic acid]: the IC50 is 15.7 nM. Consider `C[C@@](O)(c1ccc(-c2nc([C@@H]3C[C@@H]4[C@H](C3)[C@H]4C(=O)O)n3ccnc(N)c23)cc1)c1cccc(C(F)(F)F)c1` [Example 36, (1R,3R,5S,6r)-3-[8-amino-1-(4-{(1R)-1-hydroxy-1-[3-(trifluoromethyl)phenyl]ethyl}phenyl)imidazo[1,5-a]pyrazin-3-yl]bicyclo[3.1.0]hexane-6-carboxylic acid], for which the IC50 is 1.1 nM.

In general, IC50 refers to the concentration needed to halve the response being measured.
